From patent publication US20080131867A1, “Method for Determining the Effectiveness of a Treatment for Preeclampsia” (priority 2006, published 2008)

Legend:
[1] = tested on: PP13 release from placenta explants; experiment: Therapeutic effectiveness on PP13 release from standardized placenta explants in presence of patient serum (indirect method); format: cell-based, human
Description: Scenario 1: Simple Direct Tailoring with a Diversity of Drugs. • We have standardized culture conditions for first trimester explants or explants obtained after delivery. • Explants could be the ones made of patients after delivery or those obtained by Chorionic villi sampling (CVS) at gestational weeks 10-12 or other placenta biopsies as the case may be. • Standardization means defined median viability index, protein content in the explant, total protein released to the medium, PP13 content in the explant and PP13 release from the explant, among others. • Drug effect in-vitro is the effect of drug applied to the culture medium on PP13 release from the placenta explant after 24 hr to 7 days. The effect is compared to the baseline release as measured without the drug. • The Therapeutic Index is thus the in-vitro relative effectiveness of the drug when applied to explants as measured by the difference between PP13 release with (PP13D1) and without (PP130) the drug by the equation: (PP130−PP13D1)/PP130, after normalizing to viability, protein content etc as described above, given all other parameters are the same. • It is important to note that in the first trimester (gestational weeks 6-13) PP13 in diseased patient is lower than Normal. Thus the therapeutic index is to return PP13 release is calculated as drugs that elevate PP13 release. In the third trimester (gestational week 26 and above), PP13 is higher in preeclamptic patients than normal. Thus the therapeutic index is decreasing PP13 release back to Normal. • According to the in-vitro therapeutic index one drug or a drug combinations are selected for the in-vivo interventional medication treatment. • Follow up: after selecting the drug to be administrating to the patient, bi-weekly blood testing follow up is recommended to be carried out by measuring the PP13 in the blood and calculating
If so, drugs that appears beneficial to standardized culture explants wouldn't work when applied together with the patient samples. It can be seen that the serum from the patient at high risk for preeclampsia caused serious inhibition of many of the types of treatment.

[2] = tested on: women with elevated risk to develop preeclampsia; experiment: Delivery outcome of high-risk women treated with low dose aspirin; format: in vivo, human; conditions: for Outcome: Normal (number of women) / Outcome: Preeclampsia (number of women): 50 treated
Experimental: (§1) If in the period specified above a medication is used, it is anticipated that it will bring a woman's PP13 level to the 2nd or 3rd or even the 4th quartile, corresponding to their reduced likelihood of developing preeclampsia. In the example described in Table 2, women with elevated risk to develop preeclampsia were orally treated from GW8 with a dose of […] aspirin (“low dose aspirin”) for either 2 or 3 weeks. […] Accordingly, women who were treated were anticipated to have lower risk to develop preeclampsia and their outcome should also be improved.
(§2) In the study shown in Table 2, of 150 women tested as being at high risk in the 8th week, 50 were not treated, 50 were treated with aspirin for two weeks and 50 were treated for 3 weeks. […] The calculation of their anticipated risk was reduced accordingly.

PP13 [3] = experiment: Allocation of high-risk women to serum PP13 quartiles after low dose aspirin; format: in vivo, human; conditions: for Frequency of 1st quartile cases / Frequency of 2nd quartile cases / Frequency of 3rd quartile cases: high-risk women
Experimental: (§3) Unless otherwise indicated, in all experiments, PP13 was measured (blinded to pregnancy outcome) in maternal venous serum by solid-phase sandwich ELISA assay. The PP13 level was calibrated according to standard curves prepared from calibrated standards of recombinant PP13. Concentrations are given in pg PP13/ml serum.
First trimester PP13 could serve as a measure to assess the risk for a later development of preeclampsia. According to FIG. 2 and Table 1, in the first trimester, the majority of the women who will go on to develop preeclampsia have very low levels of PP13 while most women who will have a normal outcome have higher PP13 values. In one study summarized in Table 2 and FIG. 3, the PP13 level was measured at 8 weeks of gestation from 50 cases who went on to develop preeclampsia and in 290 cases with normal outcome. The method of multiples of the gestation-specific median (MoM) was used, and at MoM cutoffs of 0.45, the false positive rate was 10% and the sensitivity 87%. This means that 43 out of 50 preeclampsia cases and 29 out of 290 normal were identified as being at high risk. Thus, while the risk for PP13 in the population is 5%, in the group with PP13 below 0.45, the frequency of preeclampsia was 59% (more than 10 times above the frequency in the population not tested).
Sensitivity and specificity were calculated from the receiver operating characteristic (ROC) analysis based on the indicated MoM cutoffs of 0.45. Sensitivity value is provided in Table 2 in percentile for 10% false positive rate. The odds ratio for developing the pathology was determined by two methods of calculations:
1) modeling, that calculate the Odds ratio as already described above after taking into consideration the prevalence of the pathology in the population, and
2) the quartile assessment procedure, of calculating of the odds ratio for the development of preeclampsia based on the comparison of PP13 in the lowest quartile (25%) versus PP13 in the third quartile (75th percent).
as §1, §2
Sensitivity in percentile values are shown when the specificity was fixed to 90% (95% CI: 86%-93%), corresponding to having […] cases of false positives (10%).

PP13 [4] = experiment: Serum PP13 values and 1st-to-2nd trimester slope in women treated with vitamin E (FIG. 4); format: in vivo, human
Experimental: as §3
The slope may be calculated as follows:
Slope=(PP13(2nd trimester)−PP13(1st trimester)/GW(2nd trimester)−GW(1st trimester)).
Normal vs. preeclampsia slopes are shown in FIG. 4, and the cutoff between normal and preeclampsia to reach 80% sensitivity is a slope of 3.5. The slope helps to further verify the risk for preeclampsia.
If after establishing the risk by two tests the women at high risk are treated daily by administering the anti-oxidant vitamin E, the treated women have a lower slope (FIG. 4). From the relatively large confidence level one can see that not all women were affected in the same way. Thus, the approach can be further used to enable one to see how the slope can be reduced by medications and its correlation to the reduced risk to develop the pathology, thereby considering discontinuing the treatment, elevating the drug level or selecting a different treatment for individual patients. The combined and contingent approaches indicate that multiple testing is necessary only for women at risk whereas low risk patients may avoid repeated testing.

[5] = tested on: PP13 release from placental (villous) explants; experiment: PP13 release from placental (villous) explants cultured 48 hours (FIGS. 7-11); format: cell-based, human
Experimental: The tissue of each woman was divided into 16 different portions, exposed each to diversified conditions and cultured for 48 hours;
The following results were obtained with placental (villous) explants from 16 cases of normal women, 12 cases of preeclampsia and 3 cases of HELLP women, which were cultured in DMEM/F12 for 48 hours at 6% or 20% O2. Conditioned media was collected after culture and tested for total protein and PP13. PP13 release was related to total protein.
The explants tested in Example 6 were retested using, in addition to the two oxygen levels, two different levels of magnesium, 0.7 mM and 1.4 mM.
Note that the latter combination also affected the HELLP cases. […]

[6] = tested on: PP13 release from cultured chorionic villi; experiment: PP13 release from cultured chorionic villi of GW 9-10 (48 hr culture, ELISA); format: cell-based, human; conditions: for PP13 (pg/ml) release: 48 hr
Experimental: From left to right, the explants are shown at transfer (6 hours) and after 36 hr in culture. Cultures are grown in conditioned medium. After 48 hr in culture, the supernatant is collected, centrifuged and the […] is diluted in PBS and checked for the concentration of PP13 by sandwich ELISA using PP13 standards to calibrate the reaction OD to PP13 concentration. The PP13 level may be normalized to the gestational age according to the linear regression of the total points and to the protein level of the explant; […] The placenta cells/explants were cultured for 48 hr and PP13 was measured in the culture medium by ELISA (in the same manner as described in FIG. 1).

[7] = applied with serum from a Normal Patient
[8] = applied with serum from a Patient at high risk for preeclampsia

CC(=O)Oc1ccccc1C(=O)O [Aspirin, salicylic acid (aspirin)]
Therapeutic Effectiveness on PP13 release from placenta explants [1, 7]: 74% | Therapeutic Effectiveness on PP13 release from placenta explants [1, 8]: 40% | Outcome: Normal (number of women) ([2]; 14 days aspirin): 26 Normal | Outcome: Preeclampsia (number of women) ([2]; 14 days aspirin): 24 Preeclampsia | Outcome: Normal (number of women) ([2]; 21 days aspirin): 33 Normal | Outcome: Preeclampsia (number of women) ([2]; 21 days aspirin): 18 Preeclampsia | Number of preeclampsia cases, treated vs. untreated groups ([2]; aspirin for 2 or 3 weeks): significantly lower | Odds ratio (by modeling) for developing preeclampsia (PP13 [3]; 14 days aspirin): 5.9 | Odds ratio (by quartiles) for developing preeclampsia (PP13 [3]; 14 days aspirin): 5.6 | Frequency of 1st quartile cases (PP13 [3]; 14 days aspirin): 20/50 | Frequency of 2nd quartile cases (PP13 [3]; 14 days aspirin): 24/45 | Frequency of 3rd quartile cases (PP13 [3]; 14 days aspirin): 5/50 | Odds ratio (by modeling) for developing preeclampsia (PP13 [3]; 21 days aspirin): 3.3 | Odds ratio (by quartiles) for developing preeclampsia (PP13 [3]; 21 days aspirin): 3.2 | Frequency of 1st quartile cases (PP13 [3]; 21 days aspirin): 14/50 | Frequency of 2nd quartile cases (PP13 [3]; 21 days aspirin): 30/50 | Frequency of 3rd quartile cases (PP13 [3]; 21 days aspirin): 5/50 | Numbers of patients in the 2nd and 3rd PP13 quartiles compared to the first quartile (PP13 [3]; aspirin for 2 or 3 weeks): elevated significantly

vitamin E
Therapeutic Effectiveness on PP13 release from placenta explants [1, 7]: 30% | Therapeutic Effectiveness on PP13 release from placenta explants [1, 8]: 0% | Effect on PP13 (PP13 [4]; 16-20 weeks, vitamin E): no significant effect | Effect on PP13 level/release (PP13 [4]; cases of preeclampsia, 6-10 weeks, early application of vitamin E): doubles PP13 release towards the normal level | Effect on PP13 release (PP13 [4]; normal patients, 6-10 weeks, vitamin E): without affecting PP13 release | Effect on PP13 release (PP13 [4]; preeclamptic women, 24-28 weeks, vitamin E): reduces PP13 release back to the normal level | PP13 slope (1st-to-2nd trimester) (PP13 [4]; women at high risk treated daily with vitamin E): lower slope

aprotinin
Effect on PP13 release ([5]; HELLP explants, normoxia and high Mg (FIG. 11B)): almost back to normal

O=O [Oxygen, oxygen]
Increase of PP13 release under 20% oxygen compared to 6% oxygen ([6]; 3 high risk women, no vitamin C): ~2 factor | PP13 (pg/ml) release ([6]; Case 1, normal risk, 20% oxygen (hyperoxia), no vitamin C): 14,250 pg/ml | PP13 (pg/ml) release ([6]; Case 2, normal risk, 20% oxygen (hyperoxia), no vitamin C): 15,500 pg/ml | PP13 (pg/ml) release ([6]; Case 3, high-risk (preeclampsia), 20% oxygen (hyperoxia), no vitamin C): 5,000 pg/ml | PP13 (pg/ml) release ([6]; Case 3, high-risk (preeclampsia), 20% oxygen (hyperoxia), no vitamin C, listed as oxygen): 5000 pg/mL | PP13 (pg/ml) release ([6]; Case 4, high-risk (preeclampsia), 20% oxygen (hyperoxia), no vitamin C): 4,300 pg/ml | PP13 (pg/ml) release ([6]; Case 5, high-risk (preeclampsia), 20% oxygen (hyperoxia), no vitamin C): 7,900 pg/ml | Effect on PP13 release ([5]; explants from HELLP cases, 20% vs 6% oxygen, 48 hours, listed as O2): reduced by 20% O2 to below the normal level | Effect on PP13 release ([5]; explants from HELLP cases, 20% vs 6% oxygen, 48 hours, listed as hyperoxia): almost complete halt in PP13 release | Effect on PP13 release ([5]; explants from normal women, 20% vs 6% oxygen, 48 hours): no effect | Effect on PP13 release ([5]; explants from normal women, 20% vs 6% oxygen, 48 hours, listed as hyperoxia): remained at the same level | Effect on PP13 release ([5]; explants from preeclampsia women, 20% vs 6% oxygen, 48 hours): decreased significantly | Effect on PP13 release ([5]; explants from preeclampsia women, 20% vs 6% oxygen, 48 hours, listed as hyperoxia): significantly less PP13 release

O=C1O[C@H]([C@@H](O)CO)C(O)=C1O [Vitamin C, vitamin C]
Increase of PP13 release with vitamin C vs. without ([6]; 3 high risk women, 6% oxygen, 48 hours incubation): 3-4 times | PP13 (pg/ml) release ([6]; Case 1, normal risk, 6% oxygen, with vitamin C): 14,300 pg/ml | PP13 (pg/ml) release ([6]; Case 1, normal risk, 20% oxygen, with vitamin C): 14990 pg/mL | PP13 (pg/ml) release ([6]; Case 2, normal risk, 6% oxygen, with vitamin C): 15,390 pg/ml | PP13 (pg/ml) release ([6]; Case 2, normal risk, 20% oxygen, with vitamin C): 15,300 pg/ml | PP13 (pg/ml) release ([6]; Case 3, high-risk (preeclampsia), 6% oxygen, with vitamin C): 12,030 pg/ml | PP13 (pg/ml) release ([6]; Case 3, high-risk (preeclampsia), 20% oxygen, with vitamin C): 5,100 pg/ml | PP13 (pg/ml) release ([6]; Case 4, high-risk (preeclampsia), 6% oxygen, with vitamin C): 9,230 pg/ml | PP13 (pg/ml) release ([6]; Case 4, high-risk (preeclampsia), 20% oxygen, with vitamin C): 4,421 pg/ml | PP13 (pg/ml) release ([6]; Case 5, high-risk (preeclampsia), 6% oxygen, with vitamin C): 15760 pg/mL | PP13 (pg/ml) release ([6]; Case 5, high-risk (preeclampsia), 6% oxygen, with vitamin C, listed as vitamin C): 15,790 pg/ml | PP13 (pg/ml) release ([6]; Case 5, high-risk (preeclampsia), 20% oxygen, with vitamin C): 8,100 pg/ml | Additional effect of vitamin C on PP13 release under 20% oxygen ([6]; high risk women, 20% oxygen (hyperoxia)): no additional effect

heparin
Therapeutic Effectiveness on PP13 release from placenta explants [1, 7]: 56% | Therapeutic Effectiveness on PP13 release from placenta explants [1, 8]: 20% | Effect on PP13 release ([5]; hyperoxia and normal Mg (FIG. 11C)): almost back to normal

[Cl-].[Cl-].[Mg+2] [Magnesium, MgCl2]
Therapeutic Effectiveness on PP13 release from placenta explants [1, 7]: 50% | Therapeutic Effectiveness on PP13 release from placenta explants [1, 8]: 20% | Effect on PP13 release ([5]; HELLP explants, hyperoxia (20%), increase in Mg (1.4 mM)): elevated release of PP13 | Effect on PP13 release ([5]; HELLP explants, normoxia (6%), elevated Mg (1.4 mM)): elevated release of PP13 | Effect on PP13 release ([5]; explants from normal pregnant women, elevated oxygen (20%) and MgCl2 (1.4 mM)): not affected | Effect on PP13 release ([5]; preeclamptic explants, magnesium 1.4 mM in 6% oxygen): not in 6% oxygen | Effect on PP13 release ([5]; preeclamptic explants, magnesium 1.4 mM in 20% oxygen): brought back to the normal level
